Measurements reported in patent US8211883B2, “Topical delivery of phthalocyanines” (priority 2004, dated 2012).
Where a name gives a salt, the structure may show the parent alone.

Legend:
[1] = system: Chinese hamster V79-379 lung fibroblasts; test: Growth delay of V79 cultures after phthalocyanine and red light; type: cell-based; settings: V79 cells; for Growth Delay (12 kj/m^2), Efficiency Relative to 1 μM (AlPcCl): 18 hours, 12 kJ/m^2 red light
Procedure: At the time of light exposure, there were approximately 1.5×10^5 cells per 25 cm^2 flask. Following irradiation, the HBSS was replaced by 10 mL of fresh complete growth medium, and the cultures were returned to the 37° C. incubator. At various times before and after irradiation, duplicate cultures were trypsinized and counted. Controls included untreated cells and cells treated with light alone or drug alone. In addition, in each experiment, the drug to be tested was compared to a standard treatment, i.e. 1 μM AlPcCl for 18 hours followed by 12 kJ/m^2 light.
The inhibition of V79 culture growth was measured during a three day period following red light irradiation (12 kJ/m^2) of phthalocyanine-pretreated cells. With each of the active compounds, as well as with AlPcCl, there was an initial decrease in cell density, as dead cells became detached from the monolayer. Thereafter, the cell number per flask increased, as living cells grew and divided. The time for the cell density to recover to the level at the time of light exposure was considered the growth delay. […] The ratio of the growth delay for the test photosensitizer and the growth delay for AlPcCl measured in the same experiment is recorded in Table 1. There was less inhibition of culture growth when cells were exposed to compounds III, V, or VI as expected from the poor cellular uptake of these drugs.

[2] = system: Chinese hamster V79-379 lung fibroblasts; test: Clonogenic cell survival of V79 cells after photodynamic treatment; type: cell-based; settings: for CF10(AIPcCI)/CF10 (Pc) / F10(AIPcCI)/F10 (Pc): 1.0 μM; for CF10(AIPcCI)/CF10 (Pc): CF10 = product of intracellular concentration and fluence reducing survival to 10%; for F10(AIPcCI)/F10 (Pc): F10 = fluence reducing cell survival to 10%
Procedure: Cells were irradiated at a density of approximately 2×10^6 per 25 cm^2 flask. Immediately after irradiation, the cell monolayer was treated with trypsin, and appropriate aliquots were plated in triplicate to give 100 to 200 colonies in each 10-cm Petri dish. Cell survival was determined by the ability of the cells to form colonies containing at least 50 cells. The response of cells treated with 1 μM AlPcCl and light was compared in each experiment.
Photocytotoxicity of the phthalocyanines compounds I to VI was also assessed by clonogenic assay (Table 1, FIG. 1). In all experiments, 1 μM AlPcCl was included for comparison purposes. From the survival curves (FIG. 1), the fluence reducing the cell survival to 10% (F10) was obtained. The ratio of the F10 for AlPcCl and the F10 for the test compound is recorded in Table 1. Compounds I and II appear to be nearly as efficient photosensitizers as AlPcCl, while compound IV (assayed at half the concentration) was almost twice as efficient as the standard AlPcCl. […] However, in spite of the low efficiency of compound V in inhibiting cell growth, survival measurements were made for this compound, because it was taken up into V79 cells somewhat more efficiently than compounds III and VI.
In order to take differences in cellular uptake into consideration in the assessment of the relative efficiency of these phthalocyanines as photosensitizers of V79 cells, the survival data were replotted against the product of intracellular phthalocyanine concentration and light fluence (FIG. 2). From these curves, the product of intracellular concentration and light fluence reducing survival to 10% (CF10) was obtained, and comparisons of the values for AlPcCl and the test compounds are recorded in Table 1. By this and the other criteria, compound IV appears to be the most efficient photosensitizer. However, when consideration is given to the lesser cell uptake of compound V, it appears to be about as strong a photosensitizer as compound IV.
Using the cell culture methods described above, V79 cells Chinese hamster lung fibroblasts were treated with either 0.5 or 1.0 μM of the phthalocyanines listed in Table 3. About 18 hours thereafter, the cells were irradiated with increasing doses of 675 nm broad band red light from a 500 W tungsten-halogen lamp fitted with a 600 nm high pass filter, to determine the light dosage that would kill 90% of the phthalocyanine treated cells. Where 90% of the cells were not killed, the maximum percent of cells killed were determined, (expressed as % survival) and the related light dosage recorded.

[3] = system: Chinese hamster V79-379 lung fibroblasts; test: Uptake of phthalocyanines into V79 cells
Procedure: Chinese hamster V79-379 lung fibroblasts were grown in monolayer culture in McCoy's 5A medium (Gibco Laboratories, Grand Island, N.Y.) augmented with 10% calf serum and buffered with 20 mM HEPES (pH 7.4).
Total uptake was determined by scraping the phthalocyanine-treated monolayer, collecting the cells on a glass-fiber filter, and extracting the phthalocyanine in ethanol, as previously described by Ramakrishnan, et al., 1989. (Ramakrishnan, N., M. E. Clay, M. F. Horng, A. R. Antunez, & H. H. Evans, “DNA Lesions and DNA Degradation in Mouse Lymphoma L5178Y Cells After Photodynamic Treatment Sensitized by Chloroaluminum Phthalocyanine”, Photochem. Photobiol, in press, 1989). The amount of drug was determined by absorption at 674 nm and expressed relative to the number of cells, as measured in a Coulter cell counter on an aliquot of the cell population. Controls included cells not treated with drug, medium alone, and drug-containing medium without cells.
The cells were treated with 1 μM AlPcCl (from Eastman Kodak, Rochester, N.Y.) or with phthalocyanine compositions I-VI (0.5-1.0 μM final concentration in the medium) for 18 hours by adding the appropriate volume of a 1.0 mM stock solution in dimethylformamide (DMF) to the culture medium. The growth medium was replaced with 4 mL Hank's balanced salt solution (HBSS), and the cells were irradiated. The light source was a 500 W tungsten-halogen lamp located approximately 29 inches below the surface of a glass exposure tray. The visible light administered to the cells was filtered to allow passage of only that portion of the visible spectrum above 600 nm (Lee Primary red filter No. 106, Vincent Lighting, Cleveland, Ohio). The fluence rate was approximately 0.074 kJ/m^2/s at the level of the cell monolayer.
V79 cells Chinese hamster lung fibroblasts were cultured using the cell culture methods described above. The phthalocyanines listed in table 2 were added to the cultures typically at concentrations of 1 μM, 2 μM, and/or 4 μM and incubated for 18 hours, after which aliquots of the cells were counted and other aliquots were collected on a glass fiber filter. When the filters were dry, the phthalocyanines were extracted into ethanol and the absorption determined at the peak wavelength, usually 668 nm. Values were converted to nmoles taken up by 10^6 cells, using an extinction coefficient of 2.93×10^5.

[4] = system: L5178Y cells; test: Induction of apoptosis (DNA ladder) in L5178Y cells after PDT; type: cell-based, Mouse; settings: for C × F Ld90, Minimum Demonstrated Condition to Induce Apoptosis: product of concentration and fluence
Procedure: The cells were used while in exponential growth. Stock solutions of either 0.5 or 1 mM of PcIV, PcXII, PcX, PcXVIII were prepared in dimethylformamide unless otherwise indicated and added to the 10 mL medium at a rate of 1 μL per mL. After allowing 18 hours for uptake of the phthalocyanine into the cells, the flasks containing the cultures were placed on a glass exposure tray above a 500-W tungsten-halogen lamp. The exposure tray was fitted with a 600-nm high-pass filter. Flasks were exposed to various fluences of red light (up to 30 kJ/m^2) at a fluence rate of approximately 74 W/m^2). After irradiation, the cells were collected by centrifugation.
The aliquots were plated in sufficient numbers to produce 50-200 colonies. The dishes were kept in an incubator at 37° C. in an atmosphere of 5% CO2 and 95% air for 10-14 days to allow viable cells to form colonies. Colonies were counted by eye. […] The plating efficiencies of the treated cells are normalized to the plating efficiencies of control cells in each experiment.
Cells were treated with various concentrations of the compounds listed in the table and various light fluences. DNA gels were prepared and examined for the characteristic “ladder” pattern of DNA fragments. For each Pc, the minimum total PDT dose tested (calculated as the product of the minimum phthalocyanine concentration and the minimum fluence) which produced visible DNA fragments is recorded. […] PcXVIII was also added at 0.5 and 1.0 μM.

[5] = system: RIF-1 (radiation-induced fibrosarcoma) tumors; test: PDT of RIF-1 implanted tumors; type: in vivo, C3H/HeN mice; parameters: key to Tumor Responses at 24 hours: complete: no evidence of any tumor mass in any animal; only the scar from the photodynamic therapy was evident.; near complete: evidence of any tumor mass in four or five animals; only some tumor mass in one or two animals.; substantial: a significant tumor shrinkage occurred in all animals. In some animals the tumor response was complete, yet in others the response was not complete.; moderate: some tumor shrinkage was evident in some animals. In animals with some tumor shrinkage, scar formation was evident.; slight: some tumor decrease occurred in one or two mice; settings: 1 mg/kg in corn oil, 675 nm
Procedure: The relative effectiveness at reducing tumor volume of selected phthalocyanine compounds at a given dosage was compared in vivo. RIF-1, i.e., radiation-induced fibrosarcoma, tumors were implanted into the backs of C3H/HeN mice. One tumor was implanted per mouse. Each of the phthalocyanine compounds listed in Table 7 was sonicated and vortexed in corn oil to produce a suspension. When the tumors reached […] in diameter and 2-3 mm in thickness, each mouse received 1 mg/kg in 0.1 mL of the corn oil, of the phthalocyanine suspension. For comparison, select mice received a conventional photosensitizer; either 5 mg/kg of chloroaluminum phthalocyanine tetrasulfonate, herein also referred to as “AlPcTS” in phosphate buffered saline or 5 mg/kg of Photofrin®-II in 5% dextrose. Twenty-four hours after the photosensitizers were administered, the tumors were irradiated with visible radiation delivered by an argon-pumped dye laser. The mice that received a phthalocyanine photosensitizer received light having a wavelength of 675 nm and the mice that received the Photofrin® II photosensitizer received light having a wavelength of 630 nm. Each tumor received 135 J/cm^2 of radiation. Tumor size was measured every day using calipers. The initial tumor volume was 50±10 mm^3. Tumor volume was calculated according to the hemiellipsoid model by the formula: V=½(4π)/3×(½×(w/2))×h
• complete—no evidence of any tumor mass in any animal; only the scar from the photodynamic therapy was evident. • near complete—evidence of […] in four or five animals; only some tumor mass in one or two animals. • substantial—a significant tumor shrinkage occurred in all animals. In some animals the tumor response was complete, yet in others the response was not complete. • moderate—some tumor shrinkage was evident in some animals. In animals with some tumor shrinkage, scar formation was evident. • slight—some tumor decrease occurred in one or two mice.

[6] = system: human skin keratome biopsies; test: Penetration of topically applied PcIV and salts into human skin, confocal fluorescence microscopy; type: in vitro ADME
Procedure: Human skin absorption of PcIV was analyzed by fluorescence confocal microscopy. PcIV fluorescence, upon activation with a HeNe laser at 633 nm, was visualized using a 650 long pass filter. Briefly, 0.4 mm thick human keratomes were removed from the gluteal region of healthy volunteers and divided into 1.5 cm×1.5 cm squares of skin. Upon application of PcIV to the epidermis in a vehicle of ethanol and propylene glycol, visualization of penetration of PcIV was achieved by fluorescence. Pc 4 was then prepared as PcIV-pyruvate and PcIV-HCl and applied in the same vehicle as Pc 4 to the epidermis. Three concentrations, namely, 0.1 mg/mL, 0.05 mg/mL, and 0.01 mg/mL were tested per PcIV formulation. Skin was incubated at 37° C. for 1, 2, and 4 hours, along with vehicle controls. […] Maximum PcIV fluorescence was detectable using laser transmission of 3% for the 0.1 mg/mL and 30% for the 0.01 mg/mL. Both PcIV.pyruvate and PcIV.HCl however could be visualized with a laser transmission of 2-3% for the 0.1 mg/mL and 7-9% for the 0.01 mg/mL concentrations.
The ability of PcIV and the newly prepared PcIV salts (HCl and pyruvate) to penetrate into the epidermis of keratome derived biopsies was examined. The time course of penetrance as well as the effect of dose of the PcIV compounds were evaluated. PcIV and the PcIV.HCl and PcIV.pyruvate salts were resuspended in ethanol (100%, 1 part PcIV, 499 parts ethanol) and then diluted to final concentrations in a 30% Propylene Glycol 70% Ethanol mixture.
Keratome biopsies of normal skin were obtained from normal volunteers after written consent according to UHHS IRB protocol # 05-95-03. To date, seven experiments have been performed. The range of age for volunteers was 20-40 yrs. Individuals represented Fitzpatrick skin types between I-III. Skin biopsies were held in PBS following the keratome procedure until processed for PcIV Application (less than 1 hr). The keratome skin samples (1.5 cm^2) were overlayed onto sterile gauze in 80 mm tissue culture petri dishes epidermal side down. PcIV compounds were then applied to the corners of the sterile gauze and allowed to “wick” through the gauze and contact the epidermis of the skin for the indicated times. Following the incubation, the tissue was removed from the gauze and washed three times in phosphate buffered saline and held, in PBS, until analysis by confocal microscopy. Confocal images were acquired using a 20×N.A. 0.5 water immersion objective on a Zeiss 510 confocal microscope. PcIV fluorescence was elicited using a 633 nm wavelength for excitation, and collected with a 633 nm dichroic mirror and 650 nm long-pass filter.

CN(C)CCC[Si](C)(C)[O][Al]1[n]2c3c4ccccc4c2N=C2N=C(N=c4c5ccccc5c([n]41)=NC1=NC(=N3)c3ccccc31)c1ccccc12 [Compound I, AlPcOSi(CH3)2(CH2)3N(CH3)2]
Growth Delay (12 kj/m^2), Efficiency Relative to 1 μM (AlPcCl) [1]: 2.1
CF10(AIPcCI)/CF10 (Pc) [2]: 0.51
F10(AIPcCI)/F10 (Pc) [2]: 0.94

C[Si](C)(CCCCNS(C)(=O)=O)O[Si]1(O)n2c3c4ccccc4c2N=C2N=C(N=c4c5ccccc5c(n41)=NC1=NC(=N3)c3ccccc31)c1ccccc12 (stereo not shown) [IX, HOSiPcOSi(CH3)2(CH2)4NHSO2CH3]
Uptake Into V79 Cells, 1 μM ([3]; 1 μM, 18 hours): 0.1 ± 0.1 n Moles/10^6 cells
Uptake Into V79 Cells, 4 μM ([3]; 4 μM, 18 hours): 1.8 ± 0.8 n Moles/10^6 cells
n Moles/10^6 Cells/μM (composite uptake value) ([3]; V79 cells, average of all data, asterisk: listed value is for 1 μM, average would be higher): 0.3 n Moles/10^6 Cells/μM
Maximum Effect (% survival at kj/m^2) ([2]; 0.5 μM, at 9 kj/m^2): 44% at 9
Fluence, Minimum Demonstrated Condition to Induce Apoptosis ([4]; 0.3 μM): 12.0 kJ/m^2
C × F Ld90, Minimum Demonstrated Condition to Induce Apoptosis ([4]; 0.3 μM): 3.6 kJ/m^2
Fluence, Minimum Demonstrated Condition to Induce Apoptosis ([4]; 0.5 μM): 8.0 kJ/m^2
C × F Ld90, Minimum Demonstrated Condition to Induce Apoptosis ([4]; 0.5 μM): 4.0 kJ/m^2
Fluence, Minimum Demonstrated Condition to Induce Apoptosis ([4]; 1.0 μM): 12.0 kJ/m^2
C × F Ld90, Minimum Demonstrated Condition to Induce Apoptosis ([4]; 1.0 μM): 12.0 kJ/m^2
Tumor Responses at 24 hours ([5]; 135 J/cm^2, light 24 h after dosing): near complete
Doubling Time of Initial Tumor Volume after PDT ([5]; 135 J/cm^2, controls 4 days): 11 days

[Cl][Al]1[n]2c3c4ccccc4c2N=C2N=C(N=c4c5ccccc5c([n]41)=NC1=NC(=N3)c3ccccc31)c1ccccc12 [AlPcCl, chloroaluminum phthalocyanine, reference compound]
Uptake, Efficiency Relative to 1 μM (AlPcCl) ([3]; V79 cells, 1.0 μM, 18 hours): 1.0
uptake ([3]; V79 cells, 1 μM, mean±S. D., 25 determinations): 0.723±0.172 nmole/10^7 cells
growth delay ([1]; 1 μM for 18 hours and 12 kj/m^2 light): approximately 24 hours
Growth Delay (12 kj/m^2), Efficiency Relative to 1 μM (AlPcCl) [1]: 1.0
CF10(AIPcCI)/CF10 (Pc) [2]: 1.0
F10(AIPcCI)/F10 (Pc) [2]: 1.0

CN(C)CCC[Si](C)(C)O[Si]1(O)n2c3c4ccccc4c2N=C2N=C(N=c4c5ccccc5c(n41)=NC1=NC(=N3)c3ccccc31)c1ccccc12 (stereo not shown) [PcIV-HCl, HOSiPcOSi(CH3)2(CH2)3N(CH3)2(HCl)]
effect of salt formulation on penetration through the skin [6]: does not hinder the penetration
